Data as given in ChEMBL document CHEMBL4043199, “Synthesis and optimization of 4,5,6,7-tetrahydrooxazolo[4,5-c]pyridines as potent and orally-active metabotropic glutamate receptor 5 negative allosteric modulators” (Bioorg Med Chem Lett, 2017).
≈ marks a conversion by molar mass, not a printed value. Calls of active or inactive are those of the source. No cut-off for these calls is given here.

Tests used:
[1] = target: Cytochrome P450 3A4 (Homo sapiens, UniProt P08684); assay: Inhibition of CYP3A4 in human liver microsomes using midazolam as substrate after 10 mins by LC-MS/MS analysis; format: ADME
Chain of Cytochrome P450 3A4 (P08684 whole entry): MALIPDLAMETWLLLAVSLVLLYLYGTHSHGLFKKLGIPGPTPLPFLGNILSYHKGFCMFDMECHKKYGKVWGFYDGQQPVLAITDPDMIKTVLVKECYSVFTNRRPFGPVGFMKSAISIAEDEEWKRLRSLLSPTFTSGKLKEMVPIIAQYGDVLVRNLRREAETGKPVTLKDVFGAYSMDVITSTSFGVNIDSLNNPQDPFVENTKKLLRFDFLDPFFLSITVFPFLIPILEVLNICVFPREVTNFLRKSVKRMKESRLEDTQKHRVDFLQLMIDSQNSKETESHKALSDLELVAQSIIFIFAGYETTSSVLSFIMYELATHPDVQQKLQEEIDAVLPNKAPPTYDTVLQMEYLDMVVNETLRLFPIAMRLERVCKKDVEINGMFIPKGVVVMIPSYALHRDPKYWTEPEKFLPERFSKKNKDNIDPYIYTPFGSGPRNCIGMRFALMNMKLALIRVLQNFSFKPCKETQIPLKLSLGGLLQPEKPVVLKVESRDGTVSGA

[2] = […] of CYP450 in human liver microsomes as substrate after 10 mins by LC-MS/MS analysis; format: ADME
[3] = AUC in rat at 10 mg/kg, po; format: ADME, organism-based; conditions: in vivo
[4] = Metabolic stability in rat hepatic microsomes assessed as parent compound remaining at 1 uM after 30 mins in presence of NADPH by LC-MS/MS analysis relative to control; format: ADME, Microsome; conditions: liver microsomes, read-out: Stability
[5] = Oral bioavailability in monkey at 10 mg/kg; format: ADME, organism-based, Macaca mulatta; conditions: rhesus monkey, in vivo
[6] = Volume of distribution at steady state in rat at 1 mg/kg, iv after 24 hrs; format: ADME, organism-based; conditions: in vivo, read-out: Vdss
[7] = test system: P-gp; assay: Substrate activity at P-gp (unknown origin) assessed as efflux ratio; format: ADME; conditions: human, not told
[8] = AUC in monkey at 10 mg/kg, po; format: ADME, organism-based, Macaca mulatta; conditions: rhesus monkey, in vivo
[9] = target: T1, Cytochrome P450 2A6 (Homo sapiens, UniProt P11509); assay: Inhibition of CYP2A6 in human liver microsomes using coumarin as substrate after 10 mins by LC-MS/MS analysis; format: ADME
T1 sequence (P11509 whole entry): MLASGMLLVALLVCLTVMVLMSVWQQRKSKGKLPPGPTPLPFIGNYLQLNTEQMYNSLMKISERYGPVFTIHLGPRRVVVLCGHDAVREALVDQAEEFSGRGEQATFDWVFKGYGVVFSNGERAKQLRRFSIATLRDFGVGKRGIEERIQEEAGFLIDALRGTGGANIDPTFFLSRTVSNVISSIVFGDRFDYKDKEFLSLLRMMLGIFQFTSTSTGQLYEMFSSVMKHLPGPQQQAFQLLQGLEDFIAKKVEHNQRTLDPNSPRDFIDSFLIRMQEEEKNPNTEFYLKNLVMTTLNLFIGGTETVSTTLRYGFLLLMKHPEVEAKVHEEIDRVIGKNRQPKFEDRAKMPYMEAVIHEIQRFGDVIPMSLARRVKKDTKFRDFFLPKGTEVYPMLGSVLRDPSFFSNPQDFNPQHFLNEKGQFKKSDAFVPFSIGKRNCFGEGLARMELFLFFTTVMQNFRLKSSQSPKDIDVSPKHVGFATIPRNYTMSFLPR

[10] = Half life in monkey at 0.5 mg/kg, iv; format: ADME, organism-based, Macaca mulatta; conditions: rhesus monkey, in vivo
[11] = Cmax in monkey at 10 mg/kg, po; format: ADME, organism-based, Macaca mulatta; design: dose 10 mg/kg, route oral; conditions: rhesus monkey, in vivo
[12] = Half life in rat at 1 mg/kg, iv; format: ADME, organism-based; conditions: in vivo
[13] = test system: Rattus norvegicus; assay: Ex vivo receptor occupancy at mGluR5 in Sprague-Dawley rat brain po administered daily for 4 days in presence of [3H]-MPEPy by liquid scintillation counting method; format: functional, organism-based
[14] = AUC in monkey at 0.5 mg/kg, iv; format: ADME, organism-based, Macaca mulatta; conditions: rhesus monkey, in vivo
[15] = Metabolic stability in human hepatic microsomes assessed as parent compound remaining at 1 uM after 30 mins in presence of NADPH by LC-MS/MS analysis relative to control; format: ADME, Microsome; conditions: liver microsomes, read-out: Stability
[16] = test system: Rattus norvegicus; assay: Ex vivo receptor occupancy at mGluR5 in Sprague-Dawley rat brain at 1 mg/kg, po administered daily for 4 days in presence of [3H]-MPEPy by liquid scintillation counting method relative to control; format: functional
[17] = Oral bioavailability in rat at 10 mg/kg; format: ADME, organism-based; conditions: in vivo
[18] = target: T2, Cytochrome P450 2C8 (Homo sapiens, UniProt P10632); assay: Inhibition of CYP2C8 in human liver microsomes using amodiaquine as substrate after 10 mins by LC-MS/MS analysis; format: ADME
T2 sequence (P10632 whole entry): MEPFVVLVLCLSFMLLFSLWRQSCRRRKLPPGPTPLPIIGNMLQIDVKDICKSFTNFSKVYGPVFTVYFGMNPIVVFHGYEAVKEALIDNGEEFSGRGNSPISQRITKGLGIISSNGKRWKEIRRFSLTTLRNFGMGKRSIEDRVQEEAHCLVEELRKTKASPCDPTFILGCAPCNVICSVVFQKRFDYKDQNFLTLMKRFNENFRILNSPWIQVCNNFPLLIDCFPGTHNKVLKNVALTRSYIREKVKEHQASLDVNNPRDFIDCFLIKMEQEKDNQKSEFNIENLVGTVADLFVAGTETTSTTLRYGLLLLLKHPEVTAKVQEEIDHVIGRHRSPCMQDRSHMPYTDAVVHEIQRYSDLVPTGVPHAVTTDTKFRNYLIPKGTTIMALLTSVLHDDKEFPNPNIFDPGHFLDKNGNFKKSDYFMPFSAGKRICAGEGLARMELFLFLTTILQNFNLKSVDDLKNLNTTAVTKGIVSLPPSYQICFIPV

[19] = Aqueous solubility of compound at pH 7.4; format: physicochemical; conditions: aqueous medium
[20] = target: Voltage-gated inwardly rectifying potassium channel KCNH2 (Homo sapiens, UniProt Q12809); assay: Inhibition of human ERG
Chain of Voltage-gated inwardly rectifying potassium channel KCNH2 (Q12809 whole entry): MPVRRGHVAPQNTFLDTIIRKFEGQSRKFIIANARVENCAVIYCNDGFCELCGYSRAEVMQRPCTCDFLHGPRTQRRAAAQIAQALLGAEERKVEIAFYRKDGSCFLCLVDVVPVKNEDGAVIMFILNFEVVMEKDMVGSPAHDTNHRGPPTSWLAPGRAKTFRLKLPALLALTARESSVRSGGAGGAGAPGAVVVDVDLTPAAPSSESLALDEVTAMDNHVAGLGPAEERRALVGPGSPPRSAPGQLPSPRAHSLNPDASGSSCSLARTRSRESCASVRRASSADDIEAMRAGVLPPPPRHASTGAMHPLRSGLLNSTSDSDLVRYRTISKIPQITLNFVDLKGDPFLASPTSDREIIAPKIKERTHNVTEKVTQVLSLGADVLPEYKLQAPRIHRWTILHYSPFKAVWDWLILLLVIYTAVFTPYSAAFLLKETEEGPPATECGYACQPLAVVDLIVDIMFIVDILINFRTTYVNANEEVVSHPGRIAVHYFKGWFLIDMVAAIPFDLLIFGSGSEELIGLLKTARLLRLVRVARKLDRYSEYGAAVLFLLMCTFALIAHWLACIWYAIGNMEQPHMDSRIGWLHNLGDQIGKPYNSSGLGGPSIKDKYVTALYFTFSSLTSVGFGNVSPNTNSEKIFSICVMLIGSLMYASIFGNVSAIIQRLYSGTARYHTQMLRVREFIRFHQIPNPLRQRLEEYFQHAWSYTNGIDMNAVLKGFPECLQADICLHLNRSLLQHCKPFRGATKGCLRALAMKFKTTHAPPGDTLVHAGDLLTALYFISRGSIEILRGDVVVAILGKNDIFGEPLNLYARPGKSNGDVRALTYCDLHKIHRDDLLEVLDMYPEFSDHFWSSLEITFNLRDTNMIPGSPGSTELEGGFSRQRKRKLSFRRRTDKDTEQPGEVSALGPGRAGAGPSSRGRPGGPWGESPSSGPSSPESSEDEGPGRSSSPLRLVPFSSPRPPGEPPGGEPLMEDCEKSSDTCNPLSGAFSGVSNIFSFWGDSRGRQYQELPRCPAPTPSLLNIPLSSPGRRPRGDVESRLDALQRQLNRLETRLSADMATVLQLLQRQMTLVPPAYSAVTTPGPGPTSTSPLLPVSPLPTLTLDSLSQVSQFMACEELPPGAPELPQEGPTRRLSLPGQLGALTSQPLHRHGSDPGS

[21] = target: Cytochrome P450 2C9 (Homo sapiens, UniProt P11712); assay: Inhibition of CYP2C9 in human liver microsomes using diclofenac as substrate after 10 mins by LC-MS/MS analysis; format: ADME
Chain of Cytochrome P450 2C9 (P11712 whole entry): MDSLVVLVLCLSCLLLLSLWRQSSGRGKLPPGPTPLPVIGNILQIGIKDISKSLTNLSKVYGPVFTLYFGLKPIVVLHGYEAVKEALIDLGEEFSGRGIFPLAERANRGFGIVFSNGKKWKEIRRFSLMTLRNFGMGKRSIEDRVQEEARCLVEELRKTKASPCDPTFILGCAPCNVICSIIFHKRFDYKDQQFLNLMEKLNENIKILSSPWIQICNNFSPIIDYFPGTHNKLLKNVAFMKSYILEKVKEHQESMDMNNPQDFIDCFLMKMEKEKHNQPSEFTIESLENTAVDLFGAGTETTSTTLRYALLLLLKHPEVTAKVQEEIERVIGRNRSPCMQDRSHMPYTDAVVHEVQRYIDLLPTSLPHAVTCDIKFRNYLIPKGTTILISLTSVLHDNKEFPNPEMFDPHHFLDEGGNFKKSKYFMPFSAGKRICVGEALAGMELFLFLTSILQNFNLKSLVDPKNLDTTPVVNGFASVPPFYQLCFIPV

[22] = target: Cytochrome P450 2C19 (Homo sapiens, UniProt P33261); assay: Inhibition of CYP2C19 in human liver microsomes using (S)-mephenytoin as substrate after 10 mins by LC-MS/MS analysis; format: ADME
Chain of Cytochrome P450 2C19 (P33261 whole entry): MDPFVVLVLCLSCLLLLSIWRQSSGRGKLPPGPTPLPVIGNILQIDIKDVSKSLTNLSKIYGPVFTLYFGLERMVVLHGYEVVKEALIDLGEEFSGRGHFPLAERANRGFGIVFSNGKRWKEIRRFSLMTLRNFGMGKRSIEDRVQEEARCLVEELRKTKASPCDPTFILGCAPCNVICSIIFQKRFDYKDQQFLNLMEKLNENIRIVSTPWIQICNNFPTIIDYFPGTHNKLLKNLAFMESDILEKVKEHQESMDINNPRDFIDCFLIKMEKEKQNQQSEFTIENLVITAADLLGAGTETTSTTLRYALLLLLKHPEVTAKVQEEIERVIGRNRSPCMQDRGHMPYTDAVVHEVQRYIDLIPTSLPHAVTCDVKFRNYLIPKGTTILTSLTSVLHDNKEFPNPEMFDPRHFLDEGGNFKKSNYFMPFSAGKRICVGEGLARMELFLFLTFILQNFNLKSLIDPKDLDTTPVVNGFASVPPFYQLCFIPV

[23] = Cmax in rat at 10 mg/kg, po; format: ADME, organism-based; design: dose 10 mg/kg, route oral; conditions: in vivo
[24] = target: Metabotropic glutamate receptor 5 (Homo sapiens, UniProt P41594); assay: Negative allosteric modulation of human recombinant mGluR5 expressed in HEK293 cells assessed as inhibition of glutamate-induced calcium mobilization preincubated for 2 mins followed glutamate addition measured by fluorescence assay; format: functional, cell-based
Chain of Metabotropic glutamate receptor 5 (P41594 whole entry): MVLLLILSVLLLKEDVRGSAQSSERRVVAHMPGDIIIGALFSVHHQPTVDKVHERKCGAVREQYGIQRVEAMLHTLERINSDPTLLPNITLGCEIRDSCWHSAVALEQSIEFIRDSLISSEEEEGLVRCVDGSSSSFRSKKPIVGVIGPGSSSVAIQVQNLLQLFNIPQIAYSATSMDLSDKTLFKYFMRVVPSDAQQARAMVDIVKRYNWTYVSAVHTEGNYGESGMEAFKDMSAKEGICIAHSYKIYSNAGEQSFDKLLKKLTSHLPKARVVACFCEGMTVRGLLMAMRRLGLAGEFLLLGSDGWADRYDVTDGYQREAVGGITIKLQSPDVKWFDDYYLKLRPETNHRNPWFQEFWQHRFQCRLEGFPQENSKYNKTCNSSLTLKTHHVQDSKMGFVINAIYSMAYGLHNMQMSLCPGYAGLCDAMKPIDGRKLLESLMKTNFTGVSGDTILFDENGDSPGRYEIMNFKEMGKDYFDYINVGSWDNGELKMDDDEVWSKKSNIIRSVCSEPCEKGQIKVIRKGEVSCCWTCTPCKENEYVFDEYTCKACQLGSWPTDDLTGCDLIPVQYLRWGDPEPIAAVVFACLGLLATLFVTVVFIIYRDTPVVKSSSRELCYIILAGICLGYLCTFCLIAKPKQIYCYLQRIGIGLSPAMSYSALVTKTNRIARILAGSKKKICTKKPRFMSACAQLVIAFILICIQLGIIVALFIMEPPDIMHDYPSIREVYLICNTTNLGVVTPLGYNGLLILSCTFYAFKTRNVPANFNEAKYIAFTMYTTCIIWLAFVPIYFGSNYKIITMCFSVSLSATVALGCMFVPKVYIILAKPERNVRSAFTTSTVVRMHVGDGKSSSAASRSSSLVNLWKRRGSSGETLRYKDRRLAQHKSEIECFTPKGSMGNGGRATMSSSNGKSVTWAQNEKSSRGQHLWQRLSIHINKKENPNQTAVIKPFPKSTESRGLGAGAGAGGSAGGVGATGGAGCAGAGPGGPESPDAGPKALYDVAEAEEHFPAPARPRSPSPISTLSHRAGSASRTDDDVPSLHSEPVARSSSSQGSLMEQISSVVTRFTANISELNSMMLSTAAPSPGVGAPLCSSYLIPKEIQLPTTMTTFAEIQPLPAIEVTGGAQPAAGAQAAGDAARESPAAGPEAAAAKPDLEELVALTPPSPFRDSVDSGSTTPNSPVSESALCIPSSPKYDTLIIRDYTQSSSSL

[25] = Clearance in rat at 1 mg/kg, iv after 24 hrs; format: ADME, organism-based; conditions: in vivo
[26] = AUC in rat at 1 mg/kg, iv; format: ADME, organism-based; conditions: in vivo
[27] = Clearance in monkey at 0.5 mg/kg, iv after 24 hrs; format: ADME, organism-based, Macaca mulatta; conditions: rhesus monkey, in vivo
[28] = Volume of distribution at steady state in monkey at 0.5 mg/kg, iv after 24 hrs; format: ADME, organism-based, Macaca mulatta; conditions: rhesus monkey, in vivo, read-out: Vdss
[29] = target: Cytochrome P450 2D6 (Homo sapiens, UniProt P10635); assay: Inhibition of CYP2D6 in human liver microsomes using bufuralol as substrate after 10 mins by LC-MS/MS analysis; format: ADME
Chain of Cytochrome P450 2D6 (P10635 whole entry): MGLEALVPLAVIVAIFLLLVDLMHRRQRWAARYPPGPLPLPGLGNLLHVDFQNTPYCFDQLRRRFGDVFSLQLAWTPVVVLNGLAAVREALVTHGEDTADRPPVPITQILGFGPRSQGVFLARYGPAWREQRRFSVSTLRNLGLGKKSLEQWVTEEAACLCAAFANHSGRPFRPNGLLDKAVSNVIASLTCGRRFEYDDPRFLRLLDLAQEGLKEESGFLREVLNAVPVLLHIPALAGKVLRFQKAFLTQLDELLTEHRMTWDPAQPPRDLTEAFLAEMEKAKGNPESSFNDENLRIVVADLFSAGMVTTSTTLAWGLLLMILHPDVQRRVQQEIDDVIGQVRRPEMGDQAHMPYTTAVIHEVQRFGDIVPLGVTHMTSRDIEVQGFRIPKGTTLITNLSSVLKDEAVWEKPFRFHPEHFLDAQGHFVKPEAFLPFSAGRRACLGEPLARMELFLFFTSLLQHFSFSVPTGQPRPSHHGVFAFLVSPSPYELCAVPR

[30] = target: T3, Cytochrome P450 1A2 (Homo sapiens, UniProt P05177); assay: Inhibition of CYP1A2 in human liver microsomes using phenacetin as substrate after 10 mins by LC-MS/MS analysis; format: ADME
T3 sequence (P05177 whole entry): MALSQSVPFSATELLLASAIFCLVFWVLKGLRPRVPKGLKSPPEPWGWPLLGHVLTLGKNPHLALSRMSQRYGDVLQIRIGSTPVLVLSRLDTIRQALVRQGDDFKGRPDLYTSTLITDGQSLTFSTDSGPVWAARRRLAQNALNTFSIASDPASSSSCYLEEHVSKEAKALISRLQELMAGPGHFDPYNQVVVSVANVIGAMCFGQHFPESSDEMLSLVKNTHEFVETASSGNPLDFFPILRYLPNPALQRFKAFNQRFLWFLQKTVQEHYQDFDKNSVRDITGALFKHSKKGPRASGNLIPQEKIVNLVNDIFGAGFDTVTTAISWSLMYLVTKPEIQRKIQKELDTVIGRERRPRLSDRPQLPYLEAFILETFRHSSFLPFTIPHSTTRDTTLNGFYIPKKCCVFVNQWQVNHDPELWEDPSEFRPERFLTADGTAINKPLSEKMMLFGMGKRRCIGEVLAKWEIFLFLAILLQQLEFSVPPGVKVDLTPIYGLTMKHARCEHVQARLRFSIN

[31] = test system: Salmonella typhimurium; assay: Genotoxicity in Salmonella typhimurium by Ames test; format: toxicity; conditions: salmonella enterica subsp. enterica serovar typhimurium
[32] = Permeability of the compound at pH 7.4 by PAMPA; format: physicochemical; conditions: read-out: permeability
[33] = AUC in rat at 0.35 mg/kg, iv; format: ADME, organism-based; conditions: in vivo
[34] = test system: Rattus norvegicus; assay: Antidepressant activity in Wistar rat assessed as decrease in immobility time at 0.3 to 1 mg/kg, po administered 15 mins post training session from day 2 to day 6 measured for 5 mins by forced swimming test; format: functional, organism-based
[35] = Volume of distribution at steady state in rat at 0.35 mg/kg, iv after 24 hrs; format: ADME, organism-based; conditions: in vivo, read-out: Vdss
[36] = Clearance in rat at 0.35 mg/kg, iv after 24 hrs; format: ADME, organism-based; conditions: in vivo
[37] = test system: Rattus norvegicus; assay: Toxicity in rat at 100 mg/kg, po qd administered via gavage for 14 days; format: organism-based; conditions: in vivo, 336 h
[38] = Half life in rat at 0.35 mg/kg, iv; format: ADME, organism-based; conditions: in vivo
[39] = test system: Rattus norvegicus; assay: Ex vivo receptor occupancy at mGluR5 in Sprague-Dawley rat brain at 0.3 mg/kg, po administered daily for 4 days in presence of [3H]-MPEPy by liquid scintillation counting method relative to control; format: functional

Row | IC50 [1] [µM] | Activity [2] | AUC [3] [ng·h/mL] | remaining at 0.5 h, 1 µM [4] [%] | bioavailability [5] [%] | efflux ratio [7] | AUC [8] [ng·h/mL] | IC50 [9] [µM] | half-life [10] [h] | Cmax [11] [ng/mL] | Activity [13] | AUC [14] [ng·h/mL] | remaining at 0.5 h, 1 µM [15] [%] | bioavailability [17] [%] | IC50 [18] [µM] | solubility [19] [µg/mL] | IC50 [21] [µM] | IC50 [22] [µM] | IC50 [24] [µM] | Compound | IC50 [20] [µM] | also measured
1 | > 50 | Not Active | 34500 | 91 to 97 | 61 | 0.9 | 62400 | > 50 | 16.1 | 2880 | Dose-dependent effect | 5090 | 91 to 97 | 80 | > 50 | 6 (≈ 16 µM) | > 50 | > 50 | 0.038 | O=C(c1cc(F)cc(Cl)c1)N1CCc2oc(-c3ccc(F)cn3)nc2C1 | 19 | Vd [6]: 2.4 L/kg; half-life [12]: 8.9 h; Occ [16]: 48%; Cmax [23]: 1730 ng/mL; clearance [25]: 3.8 mL/min/kg; AUC [26]: 4340 ng·h/mL; clearance [27]: 1.7 mL/min/kg; Vd [28]: 2.1 L/kg; IC50 [29]: > 50 µM; IC50 [30]: > 50 µM; Activity [31]: Non-Toxic; Papp [32]: 37.1 ×10⁻⁶ cm/s
2 | > 50 | Not Active | 37400 | 91 to 97 | 139 | 1.1 | 57100 | > 50 | 4.8 | 3900 | Dose-dependent effect | 2060 | 91 to 97 | 102 | > 50 | 16 (≈ 49.5 µM) | > 50 | > 50 | 0.054 | O=C(c1ccccc1)N1CCc2oc(-c3ccc(F)cn3)nc2C1 | 64 | AUC [33]: 1290 ng·h/mL; Activity [34]: Active; Vd [35]: 0.73 L/kg; clearance [36]: 4.6 mL/min/kg; Activity [37]: Non-Toxic; half-life [38]: 2.1 h; Occ [39]: 50%; Cmax [23]: 2750 ng/mL; clearance [27]: 4.2 mL/min/kg; Vd [28]: 1.6 L/kg; IC50 [29]: > 50 µM; IC50 [30]: > 50 µM; Activity [31]: Non-Toxic; Papp [32]: 34.5 ×10⁻⁶ cm/s
3 |  |  |  |  |  |  |  |  |  |  |  |  |  |  |  |  |  |  | 0.177 | Cc1ccc(-c2nc3c(o2)CCN(C(=O)c2ccccc2)C3)nc1 |  | 
4 |  |  |  | > 91 |  |  |  |  |  |  |  |  | > 91 |  |  |  |  |  | 0.157 | COc1cccc(C(=O)N2CCc3oc(-c4ccc(F)cn4)nc3C2)c1 |  | 
